≈ marks a conversion by molar mass, not a printed value.
How the values were obtained:
[1] = tested on: β-lactamase produced by Escherichia coli TN 713; assay: stability to β-lactamase (relative ratio of hydrolysis rate); type: biochemical; conditions: PCG rated at 100
Text: (§1) In the above Table 3, the stabilities against the β-lactamase produced by Escherichia coli TN 713 and β-lactamase produced by Klebsiella oxytoca TN 1719 are expressed on a numerical scale, whereby the stabilities of PCG against these are rated at 100. Also, the stabilities against the β-lactamase produced by Serratia marcescens and β-lactamase produced by Proteus vulgaris are expressed on a numerical scale, whereby the stabilities of CER against these are rated at 100.

[2] = tested on: β-lactamase produced by Klebsiella oxytoca TN 1719; assay: as above; type: biochemical; conditions: PCG rated at 100
Text: as §1

[3] = tested on: β-lactamase produced by Proteus vulgalis GN 4413; assay: as above; type: biochemical; conditions: CER rated at 100
Text: as §1

[4] = tested on: β-lactamase produced by Serratia marcescens TN 81; assay: as above; type: biochemical; conditions: CER rated at 100
Text: as §1

[5] = tested on: Acinetobacter calcoaceticus IFO 12552; assay: antimicrobial spectrum (minimal inhibitory concentration); type: cell-based; conditions: IFO12552, pH 7.0
Text: (§2) The antimicrobial spectra of the compound (I) are shown in Table 1. | *Culture medium: 17.5 g of Bacto antibiotic medium 3 (Difco), 5 g of | Bacto yeast extract (Difco), 20 g of Bacto agar (Difco), 1 l of distilled | water; pH 7.0 | The amount of inoculated microorganism: 1 loopful of about 10^6 /ml o | microorganism suspension.

[6] = tested on: Alcaligenes faecalis IFO 13111; assay: as above; type: cell-based; conditions: IFO13111, pH 7.0
Text: as §2

[7] = tested on: Bacillus megaterium IFO 12108; assay: as above; type: cell-based; conditions: Priestia megaterium, IFO12108, pH 7.0
Text: as §2

[8] = tested on: Bacillus subtilis NIHJ PCI219; assay: as above; type: cell-based; conditions: NIHJPCI219, pH 7.0
Text: as §2

[9] = tested on: Brevibacterium thiogenitalis ATCC 19240; assay: as above; type: cell-based; conditions: Corynebacterium glutamicum, ATCC19240, pH 7.0
Text: as §2

[10] = tested on: Citrobacter freundii IFO 12681; assay: as above; type: cell-based; conditions: IFO12681, pH 7.0
Text: as §2

[11] = tested on: Escherichia coli NIHJ JC-2; assay: as above; type: cell-based; conditions: NIHJJC2, pH 7.0
Text: as §2

[12] = tested on: Klebsiella pneumoniae IFO 3317; assay: as above; type: cell-based; conditions: IFO3317, pH 7.0
Text: as §2

[13] = tested on: Proteus vulgalis IFO 3988; assay: as above; type: cell-based; conditions: pH 7.0
Text: as §2

[14] = tested on: Pseudomonas aeruginosa IFO 3080; assay: as above; type: cell-based; conditions: IFO3080, pH 7.0
Text: as §2

[15] = tested on: Salmonella typhimurium IFO 12529; assay: as above; type: cell-based; conditions: Salmonella enterica, pH 7.0
Text: as §2

[16] = tested on: Serratia marcescens IFO 12648; assay: as above; type: cell-based; conditions: IFO12648, pH 7.0
Text: as §2

[17] = tested on: Staphylococcus aureus FDA 209P; assay: as above; type: cell-based; conditions: FDA209P, pH 7.0
Text: as §2

Escherichia coli 0-111 = assay: therapeutic effect to infectious disease of mice; type: in vivo; conditions: 0111; mice infected with Escherichia coli 0-111; subcutaneous (SC); TAN-547 hydrochloride(s)
β-lactamase = assay: stability to β-lactamase (overall statement); type: biochemical; conditions: as seen from Table 3
Text: as §1

solubility = type: physicochemical
[18] = stability in aqueous solution; type: physicochemical
[19] = property of the substance (amphoteric); type: physicochemical; conditions: dihydrochloride is neutral
[20] = acute toxicity, subcutaneous administration to mice; type: in vivo; conditions: subcutaneously, 1 g/kg
[21] = dimethylsulfoxide, methanol, acetone, ethyl acetate
[22] = water, aqueous acetone, aqueous alcohol

Structure (SMILES): O=C(Cc1cccs1)N[C@@H]1C(=O)N2C(C(=O)[O-])=C(C[n+]3ccccc3)CS[C@H]12 [CER, cephaloridine, reference compound]
- Relative ratio of hydrolysis rate [1]: 21
- Relative ratio of hydrolysis rate [2]: 30
- Relative ratio of hydrolysis rate [3]: 100
- Relative ratio of hydrolysis rate [4]: 100

Structure (SMILES): CCN1CCN(C(=O)N[C@@H](C(=O)N[C@@H]2C(=O)N3C(C(=O)O)=C(CSc4nnnn4C)CS[C@H]23)c2ccc(O)cc2)C(=O)C1=O [CPZ, cefoperazone, reference compound]
- Relative ratio of hydrolysis rate [1]: 11.2
- Relative ratio of hydrolysis rate [2]: 1.55
- Relative ratio of hydrolysis rate [3]: 10.5
- Relative ratio of hydrolysis rate [4]: 11.6

Structure (SMILES): CC1(C)S[C@@H]2[C@H](NC(=O)Cc3ccccc3)C(=O)N2[C@H]1C(=O)O [PCG, benzylpenicillin, reference compound]
- Relative ratio of hydrolysis rate [1]: 100
- Relative ratio of hydrolysis rate [2]: 100
- Relative ratio of hydrolysis rate [3]: 16
- Relative ratio of hydrolysis rate [4]: 12

Structure (SMILES): CC(N)C(=O)NC(CCCNC(=N)N)C(O)CC(=O)OCC1=C(C(=O)O)N2C(=O)C(NC=O)(NC(=O)CCCC(N)C(=O)O)C2SC1 (stereo not drawn) [TAN-547 A]
- MIC [5]: 1.56 µg/mL (≈ 2.27 µM)
- MIC [6]: 6.25 µg/mL (≈ 9.09 µM)
- MIC [7]: 12.5 µg/mL (≈ 18.2 µM)
- MIC [8]: 12.5 µg/mL (≈ 18.2 µM)
- MIC [9]: 6.25 µg/mL (≈ 9.09 µM)
- MIC [10]: 50 µg/mL (≈ 72.7 µM)
- MIC [11]: 25 µg/mL (≈ 36.4 µM)
- MIC [12]: 50 µg/mL (≈ 72.7 µM)
- MIC [13]: 50 µg/mL (≈ 72.7 µM)
- MIC [14]: > 50 µg/mL
- MIC [15]: 50 µg/mL (≈ 72.7 µM)
- MIC [16]: 50 µg/mL (≈ 72.7 µM)
- MIC [17]: > 50 µg/mL
- ED50 (Escherichia coli 0-111): 18.2 mg/kg
- Relative ratio of hydrolysis rate [1]: < 0.01
- Relative ratio of hydrolysis rate [2]: < 0.01
- Relative ratio of hydrolysis rate [3]: < 0.01
- Relative ratio of hydrolysis rate [4]: < 0.01
- stability to β-lactamase (β-lactamase): remarkably stable
- Solubility (solubility; [21]): Hardly soluble
- Solubility (solubility; [22]): Easily soluble
- Stability ([18]; acidic aqueous solution): Unstable
- Stability ([18]; basic aqueous solution): Unstable
- Stability ([18]; neutral aqueous solution): slightly unstable
- Property of the substance [19]: Amphoteric substance

Structure (SMILES): CC(N)C(=O)NC(C)C(=O)NC(CCCNC(=N)N)C(O)CC(=O)OCC1=C(C(=O)O)N2C(=O)C(NC=O)(NC(=O)CCCC(N)C(=O)O)C2SC1 (stereo not drawn) [TAN-547 B]
- MIC [5]: 3.13 µg/mL (≈ 4.12 µM)
- MIC [6]: 6.25 µg/mL (≈ 8.24 µM)
- MIC [7]: 12.5 µg/mL (≈ 16.5 µM)
- MIC [8]: 12.5 µg/mL (≈ 16.5 µM)
- MIC [9]: 6.25 µg/mL (≈ 8.24 µM)
- MIC [10]: 50 µg/mL (≈ 65.9 µM)
- MIC [11]: 25 µg/mL (≈ 32.9 µM)
- MIC [12]: 50 µg/mL (≈ 65.9 µM)
- MIC [13]: 25 µg/mL (≈ 32.9 µM)
- MIC [14]: > 50 µg/mL
- MIC [15]: 25 µg/mL (≈ 32.9 µM)
- MIC [16]: 50 µg/mL (≈ 65.9 µM)
- MIC [17]: > 50 µg/mL
- ED50 (Escherichia coli 0-111): 17.2 mg/kg
- Relative ratio of hydrolysis rate [1]: < 0.01
- Relative ratio of hydrolysis rate [2]: < 0.01
- Relative ratio of hydrolysis rate [3]: < 0.01
- Relative ratio of hydrolysis rate [4]: < 0.01
- stability to β-lactamase (β-lactamase): remarkably stable
- Solubility (solubility; [21]): Hardly soluble
- Solubility (solubility; [22]): Easily soluble
- Stability ([18]; acidic aqueous solution): Unstable
- Stability ([18]; basic aqueous solution): Unstable
- Stability ([18]; neutral aqueous solution): slightly unstable
- Property of the substance [19]: Amphoteric substance

Structure (SMILES): CC(N)C(=O)NC(CCCNC(=N)N)C(O)CC(=O)OCC1=C(C(=O)O)N2C(=O)C(NC(=O)CCCC(N)C(=O)O)C2SC1 (stereo not drawn) [TAN-547 D]
- MIC [5]: 50 µg/mL (≈ 77.6 µM)
- MIC [6]: 12.5 µg/mL (≈ 19.4 µM)
- MIC [7]: 0.78 µg/mL (≈ 1.21 µM)
- MIC [8]: 0.78 µg/mL (≈ 1.21 µM)
- MIC [9]: 1.56 µg/mL (≈ 2.42 µM)
- MIC [10]: > 100 µg/mL
- MIC [11]: 50 µg/mL (≈ 77.6 µM)
- MIC [12]: 100 µg/mL (≈ 155 µM)
- MIC [13]: 50 µg/mL (≈ 77.6 µM)
- MIC [14]: > 100 µg/mL
- MIC [15]: 50 µg/mL (≈ 77.6 µM)
- MIC [16]: > 100 µg/mL
- MIC [17]: 25 µg/mL (≈ 38.8 µM)
- ED50 (Escherichia coli 0-111): 9.92 mg/kg
- death [20]: no death was observed
- Solubility (solubility; [21]): Hardly soluble
- Solubility (solubility; [22]): Easily soluble
- Stability ([18]; acidic aqueous solution): Slightly unstable
- Stability ([18]; basic aqueous solution): Unstable
- Stability ([18]; neutral aqueous solution): Slightly unstable
- Property of the substance [19]: Amphoteric substance

Structure (SMILES): CC(N)C(=O)NC(C)C(=O)NC(CCCNC(=N)N)C(O)CC(=O)OCC1=C(C(=O)O)N2C(=O)C(NC(=O)CCCC(N)C(=O)O)C2SC1 (stereo not drawn) [TAN-547 E]
- MIC [5]: 100 µg/mL (≈ 140 µM)
- MIC [6]: 12.5 µg/mL (≈ 17.5 µM)
- MIC [7]: 1.56 µg/mL (≈ 2.18 µM)
- MIC [8]: 1.56 µg/mL (≈ 2.18 µM)
- MIC [9]: 3.13 µg/mL (≈ 4.37 µM)
- MIC [10]: > 100 µg/mL
- MIC [11]: 50 µg/mL (≈ 69.9 µM)
- MIC [12]: 100 µg/mL (≈ 140 µM)
- MIC [13]: 50 µg/mL (≈ 69.9 µM)
- MIC [14]: > 100 µg/mL
- MIC [15]: 50 µg/mL (≈ 69.9 µM)
- MIC [16]: > 100 µg/mL
- MIC [17]: 25 µg/mL (≈ 34.9 µM)
- ED50 (Escherichia coli 0-111): 21 mg/kg
- Solubility (solubility; [21]): Hardly soluble
- Solubility (solubility; [22]): Easily soluble
- Stability ([18]; acidic aqueous solution): Slightly unstable
- Stability ([18]; basic aqueous solution): Unstable
- Stability ([18]; neutral aqueous solution): Slightly unstable
- Property of the substance [19]: Amphoteric substance

Structure (SMILES): CC(N)C(=O)NC(C)C(=O)NC(C)C(=O)NC(CCCNC(=N)N)C(O)CC(=O)OCC1=C(C(=O)O)N2C(=O)C(NC(=O)CCCC(N)C(=O)O)C2SC1 (stereo not drawn) [TAN-547 F]
- MIC [5]: 100 µg/mL (≈ 127 µM)
- MIC [6]: 12.5 µg/mL (≈ 15.9 µM)
- MIC [7]: 1.56 µg/mL (≈ 1.98 µM)
- MIC [8]: 1.56 µg/mL (≈ 1.98 µM)
- MIC [9]: 3.13 µg/mL (≈ 3.98 µM)
- MIC [10]: > 100 µg/mL
- MIC [11]: > 100 µg/mL
- MIC [12]: 100 µg/mL (≈ 127 µM)
- MIC [13]: 100 µg/mL (≈ 127 µM)
- MIC [14]: > 100 µg/mL
- MIC [15]: 100 µg/mL (≈ 127 µM)
- MIC [16]: > 100 µg/mL
- MIC [17]: 12.5 µg/mL (≈ 15.9 µM)
- ED50 (Escherichia coli 0-111): 25 mg/kg
- Solubility (solubility; [21]): Hardly soluble
- Solubility (solubility; [22]): Easily soluble
- Stability ([18]; acidic aqueous solution): Slightly unstable
- Stability ([18]; basic aqueous solution): Unstable
- Stability ([18]; neutral aqueous solution): Slightly unstable
- Property of the substance [19]: Amphoteric substance
